The NIST ThermoML archive (doi:10.1021/je400055v)

Test: xn = mol fraction of the nth substance listed
Conditions: Liquid, Vibrating tube method

CCCCCCCCCCC [undecane] + CCCCCCC
Conditions	mass density [kg/m3]
352.96 K, 20000 kPa, x2 = 0.05	712.1
352.96 K, 20000 kPa, x2 = 0.5063	690.9
352.96 K, 21000 kPa, x2 = 0.05	712.9
352.96 K, 21001 kPa, x2 = 0.5063	691.8
352.96 K, 22001 kPa, x2 = 0.05	713.8
352.96 K, 22050 kPa, x2 = 0.5063	692.7
352.96 K, 23000 kPa, x2 = 0.05	714.6
352.96 K, 23000 kPa, x2 = 0.5063	693.6
352.96 K, 24000 kPa, x2 = 0.05	715.4
352.96 K, 24000 kPa, x2 = 0.5063	694.5
352.96 K, 25000 kPa, x2 = 0.05	716.2
352.96 K, 25000 kPa, x2 = 0.5063	695.3
352.97 K, 1000 kPa, x2 = 0.7482	654
352.97 K, 2000 kPa, x2 = 0.7482	655.3
352.97 K, 3000 kPa, x2 = 0.7482	656.6
352.97 K, 4000 kPa, x2 = 0.7482	657.8
352.97 K, 5000 kPa, x2 = 0.7482	659.1
352.97 K, 6000 kPa, x2 = 0.7482	660.3
352.97 K, 7000 kPa, x2 = 0.7482	661.5
352.97 K, 8000 kPa, x2 = 0.7482	662.7
352.97 K, 9000 kPa, x2 = 0.7482	663.9
352.97 K, 10000 kPa, x2 = 0.7482	665
352.97 K, 11000 kPa, x2 = 0.7482	666.1
352.97 K, 12000 kPa, x2 = 0.7482	667.2
352.97 K, 13000 kPa, x2 = 0.7482	668.3
352.97 K, 14000 kPa, x2 = 0.7482	669.4
352.97 K, 15000 kPa, x2 = 0.7482	670.5
352.97 K, 16000 kPa, x2 = 0.7482	671.5
352.97 K, 17000 kPa, x2 = 0.7482	672.5
352.97 K, 18000 kPa, x2 = 0.7482	673.5
352.97 K, 19000 kPa, x2 = 0.7482	674.5
352.97 K, 20000 kPa, x2 = 0.7482	675.5
352.97 K, 21000 kPa, x2 = 0.7482	676.5
352.97 K, 22000 kPa, x2 = 0.7482	677.4
352.97 K, 23000 kPa, x2 = 0.7482	678.3
352.97 K, 24000 kPa, x2 = 0.7482	679.2
352.97 K, 25000 kPa, x2 = 0.7482	680.2
352.99 K, 1015 kPa, x2 = 0.2346	685.9
352.99 K, 2016 kPa, x2 = 0.2346	687
352.99 K, 3016 kPa, x2 = 0.2346	688.1
352.99 K, 4017 kPa, x2 = 0.2346	689.2
352.99 K, 5018 kPa, x2 = 0.2346	690.2
352.99 K, 6019 kPa, x2 = 0.2346	691.3
352.99 K, 7020 kPa, x2 = 0.2346	692.3
352.99 K, 8020 kPa, x2 = 0.2346	693.3
352.99 K, 9021 kPa, x2 = 0.2346	694.4
352.99 K, 10022 kPa, x2 = 0.2346	695.3
352.99 K, 11022 kPa, x2 = 0.2346	696.3
352.99 K, 12023 kPa, x2 = 0.2346	697.3
352.99 K, 13024 kPa, x2 = 0.2346	698.2
352.99 K, 14025 kPa, x2 = 0.2346	699.2
352.99 K, 15026 kPa, x2 = 0.2346	700.1
352.99 K, 16027 kPa, x2 = 0.2346	701
352.99 K, 17028 kPa, x2 = 0.2346	701.9
352.99 K, 18030 kPa, x2 = 0.2346	702.8
352.99 K, 19030 kPa, x2 = 0.2346	703.7
352.99 K, 20031 kPa, x2 = 0.2346	704.5
352.99 K, 21066 kPa, x2 = 0.2346	705.4
352.99 K, 22068 kPa, x2 = 0.2346	706.3
352.99 K, 23071 kPa, x2 = 0.2346	707.1
352.99 K, 24073 kPa, x2 = 0.2346	707.9
352.99 K, 25076 kPa, x2 = 0.2346	708.7
362.87 K, 1001 kPa, x2 = 0.9511	628.1
362.87 K, 2000 kPa, x2 = 0.9511	629.7
362.87 K, 3000 kPa, x2 = 0.9511	631.1
362.87 K, 4000 kPa, x2 = 0.9511	632.6
362.87 K, 5000 kPa, x2 = 0.9511	634
362.87 K, 6000 kPa, x2 = 0.9511	635.4
362.87 K, 7000 kPa, x2 = 0.9511	636.8
362.87 K, 8000 kPa, x2 = 0.9511	638.2
362.87 K, 9000 kPa, x2 = 0.9511	639.5
362.87 K, 10000 kPa, x2 = 0.9511	640.8
362.87 K, 11000 kPa, x2 = 0.9511	642.1
362.87 K, 12000 kPa, x2 = 0.9511	643.4
362.87 K, 13000 kPa, x2 = 0.9511	644.6
362.87 K, 14001 kPa, x2 = 0.9511	645.8
362.87 K, 15001 kPa, x2 = 0.9511	647
362.87 K, 16000 kPa, x2 = 0.9511	648.2
362.87 K, 17001 kPa, x2 = 0.9511	649.3
362.87 K, 18001 kPa, x2 = 0.9511	650.5
362.87 K, 19000 kPa, x2 = 0.9511	651.6
362.87 K, 20000 kPa, x2 = 0.9511	652.7
362.87 K, 21001 kPa, x2 = 0.9511	653.8
362.87 K, 22000 kPa, x2 = 0.9511	654.9
362.87 K, 23001 kPa, x2 = 0.9511	655.9
362.87 K, 24000 kPa, x2 = 0.9511	656.9
362.87 K, 25000 kPa, x2 = 0.9511	658
362.91 K, 1000 kPa, x2 = 0.7482	645.5
362.91 K, 1023 kPa, x2 = 0.2346	678.2
362.91 K, 2000 kPa, x2 = 0.7482	646.9
362.91 K, 2024 kPa, x2 = 0.2346	679.4
362.91 K, 3000 kPa, x2 = 0.7482	648.3
362.91 K, 3026 kPa, x2 = 0.2346	680.6
